Source: the supplement of paper PMC10307832

What was measured:
Assay in all cases: relative viability (nuclei count vs DMSO), 5 days (fraction); higher = more cells survive
[1] = compound: NCC(=O)Nc1ccc(-n2nc(C(F)(F)F)cc2-c2ccc3c(ccc4ccccc43)c2)cc1 + COc1cc2c(Oc3ccc(NC(=O)C4(C(=O)Nc5ccc(F)cc5)CC4)cc3F)ccnc2cc1OCCCN1CCOCC1 [Foretinib] (partner 0.25 µM)
Summary of the method: (§1)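 The day after seeding in 1536-well plates, lung cancer cell lines were treated by pin tool with a single drug, or with a fixed anchor-drug dose together with five library-drug doses (not always all listed) in √10 steps. After 5 days, a combined fix-and-stain solution (final 0.05% Triton X-100, 1% formaldehyde, 1 ug/ml Hoechst) was added. Nuclei counted on 4× images gave relative viability as treated counts over vehicle counts, reported as the median of duplicate plates.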

kb NB 142-70 + Dasatinib = compound: C1CSC2=C(C(=O)N1)SC3=C2C=C(C=C3)O [kb NB 142-70] + Cc1nc(Nc2ncc(C(=O)Nc3c(C)cccc3Cl)s2)cc(N2CCN(CCO)CC2)n1 [Dasatinib] (partner 0.075 µM)
Summary of the method: as §1

[2] = compound: C1CSC2=C(C(=O)N1)SC3=C2C=C(C=C3)O [kb NB 142-70] + C[C@@H](Oc1cc(-c2cnn(C3CCNCC3)c2)cnc1N)c1c(Cl)ccc(F)c1Cl [Crizotinib] (partner 1 µM)
Summary of the method: as §1

kb NB 142-70 + OSI-027 = compound: C1CSC2=C(C(=O)N1)SC3=C2C=C(C=C3)O [kb NB 142-70] + COc1cccc2cc(-c3nc([C@H]4CC[C@H](C(=O)O)CC4)n4ncnc(N)c34)[nH]c12 [OSI-027] (partner 0.5 µM)
Summary of the method: as §1

[3] = compound: NCC(=O)Nc1ccc(-n2nc(C(F)(F)F)cc2-c2ccc3c(ccc4ccccc43)c2)cc1 + CC(=O)Nc1cccc(-n2c(=O)n(C3CC3)c(=O)c3c(Nc4ccc(I)cc4F)n(C)c(=O)c(C)c32)c1 [Trametinib] (partner 0.02 µM)
Summary of the method: as §1

Cell Line | relative viability ([1]; first compound 0.02 µM) | relative viability ([1]; first compound 0.06325 µM) | relative viability ([1]; first compound 0.2 µM) | relative viability ([1]; first compound 0.6325 µM) | relative viability ([1]; first compound 2 µM) | relative viability (kb NB 142-70 + Dasatinib; first compound 0.1 µM) | relative viability (kb NB 142-70 + Dasatinib; first compound 1 µM) | relative viability (kb NB 142-70 + Dasatinib; first compound 3.162 µM) | relative viability ([2]; first compound 0.1 µM) | relative viability ([2]; first compound 1 µM) | relative viability ([2]; first compound 3.162 µM) | relative viability (kb NB 142-70 + OSI-027; first compound 0.1 µM) | relative viability (kb NB 142-70 + OSI-027; first compound 1 µM) | relative viability (kb NB 142-70 + OSI-027; first compound 3.162 µM) | relative viability ([3]; first compound 0.02 µM) | relative viability ([3]; first compound 0.06325 µM) | relative viability ([3]; first compound 0.2 µM) | relative viability ([3]; first compound 0.6325 µM) | relative viability ([3]; first compound 2 µM)
NCI-H838 | 1.1 | 1.02 | 1.12 | 1 | 0.969 | 0.268 | 0.282 | 0.301 | 0.782 | 0.914 | 0.877 | 0.369 | 0.386 | 0.331 | 0.515 | 0.539 | 0.521 | 0.43 | 0.411
NCI-H1755 | 0.928 | 0.882 | 0.947 | 0.921 | 0.905 | 0.456 | 0.425 | 0.419 | 0.852 | 0.923 | 0.915 | 0.741 | 0.722 | 0.737 | 0.782 | 0.765 | 0.737 | 0.768 | 0.71
HCC-78 | 0.551 | 0.565 | 0.52 | 0.577 | 0.621 | 0.426 | 0.388 | 0.31 | 0.305 | 0.372 | 0.353 | 0.379 | 0.375 | 0.34 | 0.755 | 0.807 | 0.804 | 0.788 | 0.705
IA-LM | 1.26 | 1.05 | 1.14 | 1.01 | 1.19 | – | – | – | 0.856 | 1.25 | 0.894 | – | – | – | – | – | – | – | –
NCI-H322M | 1.2 | 0.945 | 0.97 | 0.912 | 1.04 | 0.24 | 0.278 | 0.269 | 1 | 1.1 | 1 | 0.489 | 0.551 | 0.498 | 0.521 | 0.482 | 0.537 | 0.5 | 0.547
NCI-H3122 | 0.973 | 0.906 | 1.01 | 0.962 | 0.888 | 0.803 | 0.794 | 0.84 | 0.268 | 0.242 | 0.192 | 0.922 | 0.919 | 0.726 | 0.204 | 0.245 | 0.188 | 0.232 | 0.261
COR-L23 | 0.982 | 0.912 | 1.13 | 1.04 | 0.973 | 0.529 | 0.526 | 0.311 | 0.679 | 0.818 | 0.278 | 0.797 | 0.728 | 0.279 | 0.593 | 0.637 | 0.568 | 0.549 | 0.491
NCI-H2087 | 0.981 | 0.992 | 1.23 | 1.11 | 1.15 | 0.907 | 1.04 | 0.608 | 0.562 | 0.903 | 0.868 | 0.532 | 0.677 | 0.35 | 0.155 | 0.209 | 0.214 | 0.181 | 0.185
LC-2-ad | 0.93 | 0.998 | 0.891 | 0.954 | 0.984 | 0.609 | 0.607 | 0.463 | 0.446 | 0.429 | 0.421 | 0.779 | 0.842 | 0.699 | 0.952 | 0.971 | 0.951 | 0.95 | 0.935
NCI-H1793 | 0.622 | 0.661 | 0.562 | 0.6 | 0.92 | 0.388 | 0.424 | 0.443 | – | – | – | 0.34 | 0.311 | 0.294 | 0.438 | 0.373 | 0.498 | 0.435 | 0.396
NCI-H1792 | – | – | – | – | – | 0.757 | 0.816 | 0.769 | 0.995 | 1.01 | 0.914 | 0.705 | 0.684 | 0.912 | 0.486 | 0.425 | 0.471 | 0.406 | 0.436
NCI-H2342 | 1.05 | 1.16 | 1.18 | 0.97 | 1.24 | 0.349 | 0.311 | 0.255 | – | – | – | 0.649 | 0.612 | 0.638 | 0.887 | 0.877 | 0.965 | 0.833 | 0.776
NCI-H1299 | 1.16 | 1.12 | 1.14 | 1.04 | 1.15 | – | – | – | 0.928 | 0.969 | 0.893 | – | – | – | – | – | – | – | –
SW 900 | – | 1 | 0.863 | 0.855 | 1.04 | 0.517 | 0.478 | 0.208 | – | – | – | 0.552 | 0.478 | 0.295 | 0.889 | 1.04 | 1 | 0.736 | 0.78
NCI-H1648 | – | – | – | – | – | – | – | – | – | – | – | 0.253 | 0.217 | 0.237 | 0.414 | 0.533 | 0.573 | 0.563 | 0.506
NCI-H522 | – | – | – | – | – | 1.03 | 0.856 | 0.704 | – | – | – | 0.737 | 0.658 | 0.608 | 0.596 | 0.684 | 0.781 | 0.92 | 0.813
NCI-H1395 | 1.12 | 1.01 | 1.07 | 1 | 0.981 | 0.393 | 0.443 | 0.43 | – | – | – | 0.674 | 0.757 | 0.638 | 1.09 | 0.998 | 1.1 | 1.03 | 1.09
A549 | 0.923 | 0.956 | 0.917 | 1.01 | 0.971 | – | – | – | 0.762 | 0.861 | 0.213 | – | – | – | – | – | – | – | –
NCI-H1563 | 0.958 | 1.04 | 0.94 | 0.984 | 0.971 | 0.464 | 0.467 | 0.424 | 0.864 | 0.853 | 0.839 | 0.773 | 0.739 | 0.752 | – | – | – | – | –
ABC-1 | 1.29 | 1.15 | – | 0.988 | 1.2 | 0.663 | 0.49 | 0.361 | 1.02 | 1.31 | 0.497 | 0.481 | 0.506 | 0.346 | – | – | – | – | –
